Results on three compounds are retold here after patent EP0871441B1, “DFMO AND TAXOL FOR THE TREATMENT OR PREVENTION OF BREAST CANCER” (Ilex Oncology, Inc., priority 1996, dated 1998).

One assay has as its system MCF-7 cells. The following applies: cited from earlier work.
For assay [1], the system named is MDA-MB-231 human breast tumor. The assay is described as follows: Tumor growth inhibition of MDA-MB-231 breast tumor implanted s.c. in nude mice. The class given is in vivo. As to conditions: for % Tumor Growth Inhibition: with respect to control. The procedure: The MDA-MB-23 1 human breast tumor cell line is estrogen independent. The cell line cannot be maintained in vitro and so was maintained in vivo in host nude mice. The tumor growth inhibition studies were conducted by transplanting MDA-MB-231 tumor cells from the host nude mouse to the subject and control nude mice of the study. The MDA-MB-231 cell line can be obtained from the American Type Culture Collection as ATCC HTB 26. Nude mice are implanted s.c. by trocar with fragments of MDA-MB-231 human breast tumor cells harvested from s.c. growing tumors in nude mice hosts. When tumors are approximately 5 mm x 5 mm in size (usually about ten to twenty days after inoculation), the animals are pair-matched into treatment and control groups. Each group contains 10 tumored mice, each of which is ear-tagged and followed individually throughout the experiment. The administration of drugs or vehicle begins the day the animals are pair-matched (Day 1). The doses, route of drug administration and schedule are selected as appropriate for the study in question. If the MTD dose of an agent is not known, it is determined in an initial dosing experiment in non-tumored mice. The experiment is usually terminated when control tumors reach a size of 1 g or 2 g for the tumor models. Mice are weighed twice weekly, and tumor measurements are taken by calipers twice weekly, starting on day 1. These tumor measurements are converted to mg tumor weight by a well-known formula, and from these calculated tumor weights, the termination date can be determined. Upon termination, all mice are weighed, sacrificed, and their tumors excised. Tumors are weighed, and the mean tumor weight per group is calculated. In this model, the mean treated tumor weight/mean control tumor weight x 100% (T/C) is subtracted from 100% to give the tumor growth inhibition (TGI) for each group. The final weight of a given tumor is subtracted from its own weight at the start of treatment on day 1. This difference divided by the initial tumor weight is the % shrinkage. A mean % tumor shrinkage can be calculated from data from the mice in a group that experienced regressions. If the tumor completely disappears in a mouse, this is considered a complete regression or complete tumor shrinkage. If desired, mice with partial or total tumor regressions can be kept alive past the termination date to see whether they live to become long term, tumor-free survivors. Statistics are performed on the data using primarily the log rank-value test. In the above procedure, a reduction in the growth, number, size, metastasis and/or reoccurrence of tumor in the animal is deemed a positive response.

Another assay has as its target T1, ODC (Homo sapiens, UniProt P11926).
T1 construct: endogenous in cells; host or cells: MCF-7 cells, estrogen-treated
T1 sequence (P11926 1-461): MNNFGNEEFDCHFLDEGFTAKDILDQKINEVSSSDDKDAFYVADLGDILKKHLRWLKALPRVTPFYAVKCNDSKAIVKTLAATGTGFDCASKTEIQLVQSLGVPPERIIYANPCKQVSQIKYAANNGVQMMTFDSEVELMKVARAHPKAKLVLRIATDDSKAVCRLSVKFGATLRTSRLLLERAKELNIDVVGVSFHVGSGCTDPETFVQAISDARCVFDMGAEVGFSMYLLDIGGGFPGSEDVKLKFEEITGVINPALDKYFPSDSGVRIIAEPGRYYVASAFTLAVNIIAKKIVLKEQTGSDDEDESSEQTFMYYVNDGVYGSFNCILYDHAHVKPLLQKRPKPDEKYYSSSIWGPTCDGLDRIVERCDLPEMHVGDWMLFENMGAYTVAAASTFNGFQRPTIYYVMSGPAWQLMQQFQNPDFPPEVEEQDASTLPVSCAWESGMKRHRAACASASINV
The following applies: DFMO 5 mM, MCF-7 cells; cited from earlier work.

The test system of the next assay is T-47D. The following applies: estrogen-responsive; cited from earlier work.
A further assay concerns MCF-7. As to conditions: MCF-7, estrogen-responsive; cited from earlier work.
A further assay has as its system MCF-7 human breast tumor. The assay is described as follows: Tumor growth inhibition of MCF-7 mammary carcinoma implanted s.c. in ovariectomized nude mice. The class given is in vivo. As to the method: Female ovariectomized nude mice are implanted s.c. by trocar with 21 day release 0.25 mg estrogen pellets. The following day the mice are implanted s.c. by trocar fragments of MCF-7 mammary carcinomas harvested from s.c. growing MCF-7 tumors in nude mice hosts. When tumors are approximately 5 mm x 5 mm in size (about twenty days after inoculation), the animals are pair-matched into treatment and control groups, and the estrogen pellets removed. Each group contains 10 tumored mice, each of which is ear-tagged and followed individually throughout the experiment. The administration of drugs or vehicle begins the day the animals are pair-matched (Day 1). The doses, route of drug administration and schedule are selected as appropriate for the study in question. If the MTD dose of an agent is not known, it is determined in an initial dosing experiment in non-tumored mice. Mice are weighed twice weekly, and tumor measurements are taken by calipers twice weekly, starting on Day 1. These tumor measurements are converted to mg tumor weight by a well-known formula, L^2xW/2. The experiment is terminated when control tumors reach a size of 1 gram. […] Tumors are weighed and the mean tumor weight per group is calculated. […] A mean % tumor shrinkage can be calculated from data from the mice in a group that experienced tumor regressions. […]

The next assay has as its system BT-20. The following applies: BT-20, estrogen-unresponsive; cited from earlier work.
Setting [2] is: DFMO alone 0.5% in drinking water, p.o., ad libitum.
[3] abbreviates: DFMO alone 3% in drinking water, p.o., ad libitum.
[4] abbreviates: taxol alone 20 mg/kg, i.p., qdx5.

Where “and” joins values, the source holds several entries; their conditions need not be identical. Equal values may be shown once.

As to 4-hydroxytamoxifen, in the assay on MCF-7 cells (0.1µM 4-hydroxytamoxifen, remaining growth), the “cell growth reduced to” value is recorded as 72%.
Consider `NCCC[C@](N)(C(=O)O)C(F)F` (racemic) [DFMO, alpha-difluoromethylornithine], for which the “Final Tumor Wt. (Mean±SEM)” value in assay [1] (setting [2]) amounted to 1276.3±398.6; in assay [1] (setting [3]) it was 782.7±111.4. Further, the “% Tumor Growth Inhibition” value in assay [1] (setting [2]) is 19% and 19.2%; in assay [1] (setting [3]), 52% and 51.8%. The “proliferation of MCF-7 cells, % of the controls” value with MCF-7 cells (0.1 mM DFMO, remaining proliferation) is on record as 75%. In addition, at ODC, the ODC activity entry is on record as “fully inhibited”. Besides, the figures for the inhibition of proliferation in the assay on T-47D, in the assay with MCF-7 and in the assay with BT-20 were 80%, 80% and 50%, respectively. Also, in the assay on MCF-7 human breast tumor (DFMO alone 0.5% wt in drinking water, p.o., ad libitum), the “tumor growth inhibition (TGI) with respect to control” value was 44%.
Consider `CC(=O)O[C@H]1C(=O)[C@@]2(C)[C@H]([C@H](OC(=O)c3ccccc3)[C@]3(O)C[C@H](OC(=O)[C@H](O)[C@@H](NC(=O)c4ccccc4)c4ccccc4)C(C)=C1C3(C)C)[C@]1(OC(C)=O)CO[C@@H]1C[C@@H]2O` [Taxol], for which, in assay [1] (setting [4]), the “Final Tumor Wt. (Mean±SEM)” value was determined as 301.6±72.9 and the “% Tumor Growth Inhibition” value is recorded as 83.7%. Further, the “% Tumor Growth Inhibition” value in assay [1] (taxol alone 20 mg/kg, i.p., qdx5, listed as taxol) worked out at 84%. Also, in the assay with MCF-7 human breast tumor (taxol alone 16 mg/kg, i.p., qdx5), the “tumor growth inhibition (TGI) with respect to control” value is reported as 28%.
